Measurements reported in US9174969B2, “Indoline scaffold SHP-2 inhibitors and cancer treatment method” (UNIVERSITY OF SOUTH FLORIDA, priority 2008, dated 2015).

target: T1, Shp2 (Homo sapiens (Human), UniProt Q06124); test: in vitro phosphotyrosine phosphatase activity (DiFMUP) assay; assay type: biochemical; settings: mean ± spread over n tests
Experimental: All reagents were purchased from commercial suppliers and used without further purification. Melting points were determined using a Barnstead international melting point apparatus and remain uncorrected. ^1H NMR spectra were recorded on a Varian Mercury 400 MHz spectrometer with CDCl3 or DMSO-d6 as the solvent. ^13C NMR spectra are recorded at 100 MHz. All coupling constants are measured in Hertz (Hz) and the chemical shifts (δH and δC) are quoted in parts per million (ppm) relative to TMS (δ0), which was used as the internal standard. High resolution mass spectroscopy was carried out on an Agilent 6210 LC/MS (ESI-TOF). Microwave reactions were performed in CEM 908005 model and Biotage initiator 8 machines. HPLC analysis was performed using a JASCO HPLC system equipped with a PU-2089 Plus quaternary gradient pump and a UV-2075 Plus UV-VIS detector, using an Alitech Kromasil C-18 column (150×4.6 mm, 5 μm). Thin layer chromatography was performed using silica gel 60 F254 plates (Fisher), with observation under UV when necessary. Anhydrous solvents (acetonitrile, dimethyl formamide, ethanol, isopropanol, methanol and tetrahydrofuran) were used as purchased from Aldrich. HPLC grade solvents (methanol, acetonitrile and water) were purchased from Burdick and Jackson for HPLC and mass analysis.

For `O=C(O)CCC(=O)N1CCc2cc(S(=O)(=O)N3CCN(c4ccccc4)CC3)ccc21` [XW2-038A, 4-oxo-4-(5-(4-Phenylpiperazin-1-ylsulfonyl)indolin-1-yl)butanoic acid], which IC50 is on record?
The IC50 was 14.8 ± 7.3 µM.

For `CCC(C)C(NC(=O)N1CCc2cc(S(=O)(=O)N3CCN(c4cccc(Cl)c4)CC3)ccc21)C(=O)O` (stereo not drawn) [JHE-02-038, 2-(5-(4-(3-Chlorophenyl)piperazin-1-ylsulfonyl)indoline-1-carboxamido)-3-methylpentanoic acid], which IC50 is on record?
Its IC50 is 15.5 ± 7.5 µM.

Which IC50 does the source give for `COc1ccc(C(=O)N2CCc3cc(S(=O)(=O)N4CCN(c5cccc(Cl)c5)CC4)ccc32)cc1` [JF028, (5-(4-(3-Chlorophenyl)piperazin-1-ylsulfonyl)indolin-1-yl)(4-methoxyphenyl)methanone] here?
The IC50 was 6.3 ± 2.9 µM.

With `O=C(O)C(O)CC(=O)N1CCc2cc(S(=O)(=O)N3CCN(c4cccc(Cl)c4)CC3)ccc21` (stereo not drawn) [JHE-02-067] as the compound, how does the IC50 read?
Its IC50 is 1.3 ± 0.5 µM.

Which IC50 does the source give for `CC(C)C(NC(=O)N1CCc2cc(S(=O)(=O)N3CCN(c4cccc(Cl)c4)CC3)ccc21)C(=O)O` (stereo not drawn) [JHE-02-017C, 2-(5-(4-(3-Chlorophenyl)piperazin-1-ylsulfonyl)indoline-1-carboxamido)-3-methylbutanoic acid] here?
Its IC50 is 4.4 ± 1.9 µM.

With `O=C(O)CCC(=O)N1CCc2cc(S(=O)(=O)N3CCN(c4cccc(C(F)(F)F)c4)CC3)ccc21` [XW2-031B, 4-oxo-4-(5-(4-(3-(trifluoromethyl)phenyl)piperazin-1-ylsulfonyl)indolin-1-yl)butanoic acid] as the compound, how does the IC50 read?
Its IC50 is 11.3 ± 3.1 µM.

Which IC50 does the source give for `O=C(Nc1cccc(F)c1)N1CCc2cc(S(=O)(=O)N3CCN(c4cccc(Cl)c4)CC3)ccc21` [JF039, 5-(4-(3-Chlorophenyl)piperazin-1-ylsulfonyl)-N-(3-fluorophenyl)indoline-1-carboxamide] here?
The IC50 was 8.1 ± 1.7 µM.

For `CCOC(=O)CCNC(=O)N1CCc2cc(S(=O)(=O)N3CCN(c4cccc(Cl)c4)CC3)ccc21` [JHE-02-010A, Ethyl 3-(5-(4-(3-chlorophenyl)piperazin-1-ylsulfonyl)indoline-1-carboxamido)propanoate], which IC50 is on record?
Its IC50 is 9.3 ± 2.2 µM.

For `O=C(O)CCC(=O)N1CCc2cc(S(=O)(=O)N3CCN(c4cccc(Cl)c4)CC3)ccc21` [XW2-038H, 4-(5-(4-(3-Chlorophenyl)piperazin-1-ylsulfonyl)indolin-1-yl)-4-oxobutanoic acid], which IC50 is on record?
Its IC50 is 0.7 ± 0.3 µM.

With `O=C(O)CCCC(=O)N1CCc2cc(S(=O)(=O)N3CCN(c4cccc(Cl)c4)CC3)ccc21` [JHE-01-129B, 5-(5-(4-(3-Chlorophenyl)piperazin-1-ylsulfonyl)indolin-1-yl)-5-oxopentanoic acid] as the compound, how does the IC50 read?
Its IC50 is 2.8 ± 0.7 µM.

For `CCOC(=O)C(C)NC(=O)N1CCc2cc(S(=O)(=O)N3CCN(c4cccc(Cl)c4)CC3)ccc21` (stereo not drawn) [JHE-02-010B, Ethyl 2-(5-(4-(3-chlorophenyl)piperazin-1-ylsulfonyl)indoline-1-carboxamido)propanoate], which IC50 is on record?
The IC50 was 5.1 ± 2.7 µM.

For `CCC(C)C(NC(=O)N1CCc2cc(S(=O)(=O)N3CCN(c4cccc(Cl)c4)CC3)ccc21)C(=O)OC` (stereo not drawn) [JHE-02-029A, Methyl 2-(5-(4-(3-chlorophenyl)piperazin-1-ylsulfonyl)indoline-1-carboxamido)-3-methylpentanoate], which IC50 is on record?
Its IC50 is 12.7 ± 0.7 µM.

With `O=C(O)CCC(=O)N1CCc2cc(S(=O)(=O)N3CCN(c4ccc(F)cc4)CC3)ccc21` [XW2-011B, 4-(5-(4-(4-Fluorophenyl)piperazin-1-ylsulfonyl)indolin-1-yl)-4-oxobutanoic acid] as the compound, how does the IC50 read?
The IC50 was 31.9 ± 10 µM.

For `O=C(Cc1ccccc1)N1CCc2cc(S(=O)(=O)N3CCN(c4cccc(Cl)c4)CC3)ccc21` [JF031, 1-(5-(4-(3-Chlorophenyl)piperazin-1-ylsulfonyl)indolin-1-yl)-2-phenyleth anone], which IC50 is on record?
The IC50 was 22.8 ± 4.5 µM.

For `CC1Cc2cc(S(=O)(=O)N3CCN(c4cccc(Cl)c4)CC3)ccc2N1C(=O)C(F)(F)F` (stereo not drawn) [JHE-02-117, 1-(5-(4-(3-chlorophenyl)piperazin-1-ylsulfonyl)-2-methylindolin-1-yl)-2,2,2-trifluoroethanone], which IC50 is on record?
The IC50 was 47 ± 17.7 µM.

For `CC(C)c1ccc(NC(=O)N2CCc3cc(S(=O)(=O)N4CCN(c5cccc(Cl)c5)CC4)ccc32)cc1` [JHE-02-068B, 5-(4-(3-Chlorophenyl)piperazin-1-ylsulfonyl)-N-(4-isopropylphenyl)indoline-1-carboxamide], which IC50 is on record?
The IC50 was 4.1 ± 1 µM.

For `O=C(Nc1ccccc1)N1CCc2cc(S(=O)(=O)N3CCN(c4cccc(Cl)c4)CC3)ccc21` [JF033, 5-(4-(3-Chlorophenyl)piperazin-1-ylsulfonyl)-N-phenylindoline-1-carboxamide], which IC50 is on record?
Its IC50 is 11.7 ± 1.4 µM.

For “4-(6-(4-(3-Chlorophenyl)piperazin-1-ylsulfonyl)-3,4-dihydroquinolin-1(2H)-yl)-4-oxobutanoic acid [JHE-02-023]”, which IC50 is on record?
Its IC50 is 37.3 ± 5.3 µM.

For `O=C(O)CCNC(=O)N1CCc2cc(S(=O)(=O)N3CCN(c4cccc(Cl)c4)CC3)ccc21` [JHE-02-017A, 3-(5-(4-(3-Chlorophenyl)piperazin-1-ylsulfonyl)indoline-1-carboxamido)propanoic acid], which IC50 is on record?
Its IC50 is 4.8 ± 3.3 µM.

For `CCOC(=O)CNC(=O)N1CCc2cc(S(=O)(=O)N3CCN(c4cccc(Cl)c4)CC3)ccc21` [JHE-01-134A, ethyl 2-(5-(4-(3-Chlorophenyl)piperazin-1-ylsulfonyl)indoline-1-carboxamido)acetate], which IC50 is on record?
Its IC50 is 60.3 µM.

For `O=C(Nc1ccccc1F)N1CCc2cc(S(=O)(=O)N3CCN(c4cccc(Cl)c4)CC3)ccc21` [JF035, 5-(4-(3-Chlorophenyl)piperazin-1-ylsulfonyl)-N-(2-fluorophenyl)indoline-1-carboxamide], which IC50 is on record?
Its IC50 is 12.2 ± 2 µM.

For `CC(NC(=O)N1CCc2cc(S(=O)(=O)N3CCN(c4cccc(Cl)c4)CC3)ccc21)C(=O)O` (stereo not drawn) [JHE-02-017B, 2-(5-(4-(3-Chlorophenyl)piperazin-1-ylsulfonyl)indoline-1-carboxamido)propanoic acid], which IC50 is on record?
Its IC50 is 6.4 ± 0.5 µM.

Which IC50 does the source give for `COc1ccc(N2CCN(S(=O)(=O)c3ccc4c(c3)CCN4C(=O)CCC(=O)O)CC2)cc1` [XW2-038E, 4-(5-(4-(4-Methoxyphenyl)piperazin-1-ylsulfonyl)indolin-1-yl)-4-oxobutanoic acid] here?
The IC50 was 9 ± 5.9 µM.

With `O=C(O)CCC(=O)N1CCc2cc(S(=O)(=O)N3CCN(c4cccc(Cl)c4Cl)CC3)ccc21` [XW2-038G, 4-(5-(4-(2,3-Dichlorophenyl)piperazin-1-ylsulfonyl)indolin-1-yl)-4-oxobutanoic acid] as the compound, how does the IC50 read?
The IC50 was 144 ± 89.5 µM.

For `CC(C)CC(=O)N1CCc2cc(S(=O)(=O)N3CCN(c4cccc(Cl)c4)CC3)ccc21` [JHE-02-033B, 1-(5-(4-(3-Chlorophenyl)piperazin-1-ylsulfonyl)indolin-1-yl)-3-methylbutan-1-one], which IC50 is on record?
Its IC50 is 20.7 ± 10.8 µM.

For `O=C(O)C(O)CC(=O)N1CCc2cc(S(=O)(=O)N3CCN(c4cccc(Cl)c4)CC3)ccc21` (stereo not drawn) [JHE-02-001, 4-(5-(4-(3-Chlorophenyl)piperazin-1-ylsulfonyl)indolin-1-yl)-2-hydroxy-4-oxobutanoic acid], which IC50 is on record?
The IC50 was 1.1 ± 0.3 µM.

For `COC(=O)c1ccccc1NC(=O)N1CCc2cc(S(=O)(=O)N3CCN(c4cccc(Cl)c4)CC3)ccc21` [JHE-02-015A, Methyl 2-(5-(4-(3-chlorophenyl)piperazin-1-ylsulfonyl)indoline-1-carboxamido)benzoate], which IC50 is on record?
Its IC50 is 14.3 ± 4.1 µM.

For `O=C(O)c1cccc(NC(=O)N2CCc3cc(S(=O)(=O)N4CCN(c5cccc(Cl)c5)CC4)ccc32)c1` [JHE-02-020B, 3-(5-(4-(3-Chlorophenyl)piperazin-1-ylsulfonyl)indoline-1-carboxamido)benzoic acid], which IC50 is on record?
Its IC50 is 3 ± 0.8 µM.

Which IC50 does the source give for `CCCC(=O)N1CCc2cc(S(=O)(=O)N3CCN(c4cccc(Cl)c4)CC3)ccc21` [JHE-02-033A, 1-(5-(4-(3-Chlorophenyl)piperazin-1-ylsulfonyl)indolin-1-yl)butan-1-one] here?
Its IC50 is 7.8 ± 2.1 µM.

With `CC1Cc2cc(S(=O)(=O)N3CCN(c4cccc(Cl)c4)CC3)ccc2N1C(=O)CCC(=O)O` (stereo not drawn) [JHE-02-119, 4-(5-(4-(3-Chlorophenyl)piperazin-1-ylsulfonyl)-2-methylindolin-1-yl)-4-oxobutanoic acid] as the compound, how does the IC50 read?
Its IC50 is 2.5 ± 0.5 µM.

For `O=C(c1cc(Cl)cc(Cl)c1)N1CCc2cc(S(=O)(=O)N3CCN(c4cccc(Cl)c4)CC3)ccc21` [JF025, (5-(4-(3-Chlorophenyl)piperazin-1-ylsulfonyl)indolin-1-yl)(3,5-dichlorophenyl)methanone], which IC50 is on record?
Its IC50 is 8.2 ± 2.6 µM.

target: T1, Shp2; test: not given; settings: background statement; cited from earlier work

For `CCOc1ccc(NC(=O)CN2C(=O)/C(=C3\SC(=S)C(CCS(=O)(=O)O)C3=O)c3ccccc32)cc1` (stereo not drawn) [CDL 4340-0580], which “inhibition of Shp2” value is on record?
Its value is “ability to inhibit Shp2”.

target: Shp1 (Homo sapiens (Human), UniProt P29350); test: not given; settings: background statement, non-selective; cited from earlier work
Sequence (P29350 whole entry): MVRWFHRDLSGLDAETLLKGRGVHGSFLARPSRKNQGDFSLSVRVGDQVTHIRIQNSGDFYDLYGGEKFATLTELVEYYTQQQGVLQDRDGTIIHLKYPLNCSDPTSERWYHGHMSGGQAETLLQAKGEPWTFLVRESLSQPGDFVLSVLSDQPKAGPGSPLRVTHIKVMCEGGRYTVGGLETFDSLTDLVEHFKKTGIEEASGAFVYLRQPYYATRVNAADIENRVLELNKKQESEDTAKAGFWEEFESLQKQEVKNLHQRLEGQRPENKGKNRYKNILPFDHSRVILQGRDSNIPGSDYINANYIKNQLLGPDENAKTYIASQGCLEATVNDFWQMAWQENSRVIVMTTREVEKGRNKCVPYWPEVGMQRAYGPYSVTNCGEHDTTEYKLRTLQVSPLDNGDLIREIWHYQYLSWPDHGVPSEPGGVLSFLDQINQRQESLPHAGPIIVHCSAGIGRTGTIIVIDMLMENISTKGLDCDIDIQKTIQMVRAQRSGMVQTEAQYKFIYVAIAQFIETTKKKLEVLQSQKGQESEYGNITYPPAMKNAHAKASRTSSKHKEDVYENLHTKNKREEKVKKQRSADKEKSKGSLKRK

Which “inhibition of Shp1” value does the source give for `CCOc1ccc(NC(=O)CN2C(=O)/C(=C3\SC(=S)C(CCS(=O)(=O)O)C3=O)c3ccccc32)cc1` (stereo not drawn) [CDL 4340-0580] here?
Its value is “also inhibit tumor suppressor Shp1”.
